This is an account of results in ChEMBL document CHEMBL1131983, “Synthesis of piperazine derivatives and evaluation of their antihistamine and antibradykinin effects” (Bioorg Med Chem Lett, 1999).

SMILES strings stand for the structures.

Format in all cases: tissue-based
Assay [1] concerns the target T1, B2 bradykinin receptor (Rattus norvegicus) (UniProt P25023).
T1 sequence (whole entry): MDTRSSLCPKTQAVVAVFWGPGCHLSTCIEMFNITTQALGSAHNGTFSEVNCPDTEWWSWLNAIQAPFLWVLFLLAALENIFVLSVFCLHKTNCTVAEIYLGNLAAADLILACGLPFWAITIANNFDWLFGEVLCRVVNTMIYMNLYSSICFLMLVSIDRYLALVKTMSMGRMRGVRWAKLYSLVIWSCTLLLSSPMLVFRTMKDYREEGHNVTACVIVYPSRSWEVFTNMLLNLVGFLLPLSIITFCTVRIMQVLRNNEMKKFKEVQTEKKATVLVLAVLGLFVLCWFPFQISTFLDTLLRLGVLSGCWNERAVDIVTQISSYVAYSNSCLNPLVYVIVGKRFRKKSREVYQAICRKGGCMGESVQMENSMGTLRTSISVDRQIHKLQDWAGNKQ
As to the kind of experiment: In vitro inhibitory activity against Bradykinin receptor B2 in isolated rat ileum at 0.1 uM.

Assay [2] deals with Histamine H1 receptor (Cavia porcellus) (UniProt P31389). As to the kind of experiment: In vitro inhibitory activity against histamine H1 receptor in guinea-pig ileum at 0.1 uM.
Assay [3] addresses T1, B2 bradykinin receptor (Rattus norvegicus). The experiment in a line: In vitro inhibitory activity against Bradykinin receptor B2 in isolated rat ileum at 0.1uM; '-' indicates activation.

Sequence of Histamine H1 receptor (Cavia porcellus) (P31389 whole entry): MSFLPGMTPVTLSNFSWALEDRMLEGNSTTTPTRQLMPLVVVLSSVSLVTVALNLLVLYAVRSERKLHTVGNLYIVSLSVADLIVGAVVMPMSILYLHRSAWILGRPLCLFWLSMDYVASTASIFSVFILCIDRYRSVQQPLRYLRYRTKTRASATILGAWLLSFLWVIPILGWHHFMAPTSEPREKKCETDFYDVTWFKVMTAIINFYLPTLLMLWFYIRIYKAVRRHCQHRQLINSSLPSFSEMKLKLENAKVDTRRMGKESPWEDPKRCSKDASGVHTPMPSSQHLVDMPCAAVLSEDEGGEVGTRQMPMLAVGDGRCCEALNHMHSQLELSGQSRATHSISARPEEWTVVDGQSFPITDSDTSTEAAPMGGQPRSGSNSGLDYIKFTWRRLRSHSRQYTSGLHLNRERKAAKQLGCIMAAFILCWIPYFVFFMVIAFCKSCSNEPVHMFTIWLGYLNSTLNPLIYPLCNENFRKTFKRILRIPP

With `CC(C)(COCC(=O)O)CN1CCN(C(c2ccccc2)c2ccc(Cl)cc2)CC1` (centres undefined), the inhibition (usually the change of the read-out against control, counted positive when it falls) in assay [1] was determined as 33.4%; in assay [2], 42.9%.
`Clc1ccc(C(c2ccccc2)N2CCN(CCOCc3ccc4ccccc4c3)CC2)cc1` (centres undefined): the inhibition in assay [3] was -9.5%; in assay [2] it was 10%.
As for `Clc1ccc(C(c2ccccc2)N2CCN(CCOCc3cccc4ccccc34)CC2)cc1` (centres undefined), the inhibition stood at 17% in assay [1] and 20% in assay [2].
As for `O=C(O)COC(CCN1CCN(C(c2ccccc2)c2ccc(Cl)cc2)CC1)c1ccccc1` (centres undefined), the inhibition in assay [1] amounted to 25.4%; in assay [2], 52.7%.
Consider `COc1cccc(COCCN2CCN(C(c3ccccc3)c3ccc(Cl)cc3)CC2)c1` (centres undefined), for which the values for the inhibition in assay [3] and in assay [2] were -10% and 33%, respectively.
For `Clc1ccc(C(c2ccccc2)N2CCN(CCCOCc3cccc4ccccc34)CC2)cc1` (centres undefined), the results for the inhibition in assay [1] and in assay [2] were 11.9% and 63%, respectively.
In the same order, the values of `CCC(OCCN1CCN(C(c2ccccc2)c2ccc(Cl)cc2)CC1)C(=O)O` (centres undefined) are 12.6% and 10.2%.
For `O=C(O)COC(CCc1ccccc1)CN1CCN(C(c2ccccc2)c2ccc(Cl)cc2)CC1` (centres undefined), the inhibition in assay [3] was -3.7%; in assay [2], 11%.
In the case of `CC(COCC(=O)O)CN1CCN(C(c2ccccc2)c2ccc(Cl)cc2)CC1` (centres undefined), the values for the inhibition in assay [1] and in assay [2] were 25% and 14.3%, respectively.
For the compound `O=C(O)COC(CN1CCN(C(c2ccccc2)c2ccc(Cl)cc2)CC1)c1cccc2ccccc12` (centres undefined), the inhibition amounted to 26.6% in assay [1] and 57% in assay [2].
In the same order, the values of `O=C(O)C(OCCN1CCN(C(c2ccccc2)c2ccc(Cl)cc2)CC1)c1ccccc1` (centres undefined) are 9.1% and 43.7%.
For `CC(C)c1ccc(COCCN2CCN(C(c3ccccc3)c3ccc(Cl)cc3)CC2)cc1` (centres undefined) the same measures were 5% and 77.5%.
In the same order, the values of `Clc1ccc(C(c2ccccc2)N2CCN(CCCOCc3ccc4ccccc4c3)CC2)cc1` (centres undefined) are 17.7% and 26.4%.
In the case of `CC(CN1CCN(C(c2ccccc2)c2ccc(Cl)cc2)CC1)(OCC(=O)O)c1ccccc1` (centres undefined), the inhibition in assay [1] was found to be 45.6%; in assay [2], 12.5%.
As for `O=C(O)Cc1ccc(COCCN2CCN(C(c3ccccc3)c3ccc(Cl)cc3)CC2)cc1` (centres undefined), the inhibition in assay [1] was determined as 36.6%; in assay [2], 28.4%.
For `COc1ccc(COCCN2CCN(C(c3ccccc3)c3ccc(Cl)cc3)CC2)cc1` (centres undefined) the same measures were 8.7% and 78.5%.
For `O=C(O)COCCN1CCN(C(c2ccccc2)c2ccc(Cl)cc2)CC1` (centres undefined) the same measures were 27% and 50.7%.
